Test results published in patent US8618143B1, “Selective neuronal nitric oxide synthase inhibitors with azole substituents” (Northwestern University, priority 2010, dated 2013).

What was measured:
[1] = pKa of the free azole ring of the side chain; cited from earlier work
iNOS = iNOS (Mus musculus, UniProt P29477); test: NOS inhibition assay (literature protocols), inducible isoform; format: biochemical; conditions: for selectivity i/n: ratio KI iNOS / KI nNOS
eNOS = eNOS (Bos taurus, UniProt P29473); test: NOS inhibition assay (literature protocols), endothelial isoform; format: biochemical; conditions: for selectivity e/n: ratio KI eNOS / KI nNOS
nNOS = nNOS (Rattus norvegicus, UniProt P29476); test: NOS inhibition assay (literature protocols), neuronal isoform; format: biochemical; conditions: for potency (in words): comment on Table 2
Description: Compounds 3a (not shown, below), 4a, 3c, and 4c were synthesized compounds for purpose of illustration, and 4a, 3c and 4c have been tested using literature protocols. (See, e.g., example 51 of the aforementioned incorporated '790 patent, example 12 of co-pending application Ser. No. 13/250,554 filed Sep. 30, 2011, also incorporated herein by reference in its entirety and, respectively, the references cited therein.) The activities are shown in Table 2.

| Structure (SMILES) | approximate ring pKa [1] | Ki (iNOS) [µM] | selectivity i/n (iNOS) | Ki (eNOS) [µM] | selectivity e/n (eNOS) | Ki (nNOS) [µM] | potency (in words) (nNOS) |
| --- | --- | --- | --- | --- | --- | --- | --- |
| Cn1cnc(CCN)c1 [Compound 5g] | >7.1 | – | – | – | – | – | – |
| NCCc1c[nH]cn1 [Compound 5a] | 7.1 | – | – | – | – | – | – |
| NCCn1ccnc1 [Compound 5e] | >7.1 | – | – | – | – | – | – |
| Cc1cc(N)nc(C[C@@H]2CNC[C@@H]2OCCNCCc2nccs2)c1 [Compound 3c] | – | 23.1 | 32.3 | 0.058 | 0.081 | 0.716 | highly potent |
| Cn1cncc1CCN [Compound 5f] | >7.1 | – | – | – | – | – | – |
| Cc1cc(N)nc(C[C@H]2CNC[C@H]2OCCNCCc2nccs2)c1 [Compound 4c] | – | 34.4 | 782 | 9.81 | 223 | 0.044 | moderate potency |
| Cc1cc(N)nc(C[C@H]2CNC[C@H]2OCCNCCc2c[nH]cn2)c1 [Compound 4a] | – | 15 | 12.7 | 4.23 | 3.58 | 1.18 | moderate potency |
| NCCc1nccs1 [Compound 5c] | 2.5 | – | – | – | – | – | – |
